Experimental data taken from patent US20080241280A1, “Usage of the Plant of Genus Ampelopsis and Extracts Thereof For Manufacture of Medicament and Functional Food” (priority 2004, published 2008).

Assays:
Assay type in all cases: in vivo
[1] = tested on: male C57/B6 mice; assay: Remote sensing (telemetric) determination of mice activities; conditions: Table 5, 20 mg/kg p.o., 6 hours after administration, control 2% EtOH
Method: Remote sensing determination of mice activities.
Telemetric activity and temperature monitors were surgically implanted sub-coetaneously into male C57/B6 mice under ketamie (Alfasan, batch number: 112319) and xyalsine (Alfasan, batch number: 073210) (75/10 mg/kg, i.p.) anaesthesia to remotely record activity Correct placement was determined using X-ray radiography.

[2] = tested on: C57/B6 mice; assay: Low dose pentobarbital (16 mg/kg i.p.) sleep time in mice, loss of righting reflex; conditions: for mice sleep time: Table 3, sodium pentobarbital 16 mg/kg i.p.
Method: (§1) C57/B6 mice were randomised into groups and orally administered; ECBRC-T2 (30 mg/kg), melatonin (30 mg/kg), Radix Valerianae (140 mg/kg) or vehicle (10 ml/kg H2O), 30 min prior to low dose injection of sodium pentobarbital (16 mg/kg, i/p.). The animals were then placed on a heating pad (37° C.) and their sleep latency to onset of sleep and the duration of sleep determined according to loss of righting reflex.
C57/B6 mice were randomised into groups and orally administered ECBRC-T1 (10,50,100,500 mg/kg), 30 min prior to low dose injection of sodium pentobarbital (16 mg/kg, i/p.). The animals were then placed on a heating pad (37° C.) and their sleep latency to onset of sleep and the duration of sleep determined according to loss of righting reflex. […]
The animals were then placed on a heating pad (37° C.) and their sleep latency to onset of sleep and the duration of sleep determined according to loss of righting reflex.

[3] = tested on: C57/B6 mice; assay: Pentobarbital (30 mg/kg i.p.) prolonged sleeping time in mice, loss of righting reflex; conditions: 30 mg/kg oral, 30 min prior to sodium pentobarbital 30 mg/kg i.p.; p<0.05, n>4
Method: as §1, with “(30” for “(16”

Compound	Telemetric Activity (% sleep time ± SEM) [1] [%]	Telemetric Activity (% sleep time ± SEM) ([1]; listed as zopiclone)	Sleep time (min ± SEM) ([2]; Table 1, 30 mg/kg oral, 30 min prior to sodium pentobarbital 16 mg/kg i.p.) [min]	mice sleep time ([2]; 10 mg/kg oral) [n = 4]	mice sleep time ([2]; 20 mg/kg oral) [n = 6]	mice sleep time ([2]; 30 mg/kg oral) [n = 6]	sleep time compared with the vehicle control group [3]
CN1CCN(C(=O)OC2c3nccnc3C(=O)N2c2ccc(Cl)cn2)CC1 (stereo not shown) [Zopiclone, zopiclone]	66.6 ± 5.1	significantly extended					
COc1ccc2[nH]cc(CCNC(C)=O)c2c1 [Melatonin, melatonin]			63 ± 11	31 ± 4	63 ± 5	68 ± 8	significantly difference
